{
  "source": "patent EP3225257A1",
  "about": "“AMPHIPHILIC MONOMERS BASED NANOVECTORS AND THEIR USE FOR SIRNA DELIVERY” (Université de Strasbourg, priority 2016, dated 2017)",
  "tested_on": "A549-luc cells",
  "test": "siRNA delivery, luciferase gene silencing",
  "assay_type": "cell-based, human",
  "conditions": "10 nM siRNA, 48 h",
  "method": "The A549-luc cells that stably express the reporter gene luciferase GL3 (1-2 x 10^10 RLU/mg protein) were established by transfecting human lung carcinoma A549 cells (CCL-185; ATCC) with pGL3-Luc plasmid (Clontech, Mountain View, CA, USA) using jetPEI™ as delivery system (Polyplus-Transfection, Illkirch, France). Cells were grown in RPMI 1640 medium (Eurobio, Les Ulis, France) supplemented with 10% Fetal Bovine Serum (Eurobio, Les Ulis, France), 1% antibiotic solution (pencillin-streptomycin, Gibco-invitrogen) and maintained under 0.8 µg/mL G418 selection (Promega, Madison, WI, USA) at 37 °C in a 5% CO2 humidified atmosphere. […]\nLuciferase gene expression was determined 48 h after delivery with a Luciferase Assay System (Promega, Charbonnières, France) according to manufacturer's instructions. The luminescence was quantified using 2 µL of cell lysate with a Centro LB luminometer (Berthold, Thoiry, France). Protein concentration in cell lysate was measured by using a BCA assay kit (Interchim, Montluçon, France), according to manufacturer's instructions. After expressing the luciferase activity as relative light units integrated over 10 s per mg of cell protein (RLU/mg), the luciferase gene silencing was calculated relative to the luciferase activity of non-transfected A549-luc cells.",
  "data": [
    {"substance": "C25diynetrioxa-L-Histidine [compound 1]", "values": [
      {"measurement": "specific inhibition", "setting": "40 µg/ml, polymerized micelles of the surfactant", "value": 80, "unit": "%"}
    ]},
    {"substance": "C25diynetrioxaamine [compound 2]", "values": [
      {"measurement": "maximum inhibition", "setting": "polymerized micelles of the surfactant at increasing concentrations", "value": 25, "unit": "%"}
    ]}
  ]
}
